# Results taken from patent US10597696B2, “Detection of Niemann-Pick disease comprising detection of lysozyme and cathepsins” (UNIVERSITY OF NOTRE DAME DU LAC, priority 2013, dated 2020).
# Entries after “also recorded” stand apart in the source; their conditions may differ.
# Tests used:
# [1] = tested on: Npc1^nih Npc1^−/− mouse brain; experiment: Immunohistochemistry of brain sections after HPβCD; type: in vivo; conditions: immunofluorescence
# Method: Mice were sacrificed by asphyxiation using CO2. The circulatory bed was washed with PBS (pH 7.4), and subsequently perfused with 10% neutral buffered formalin (˜4% formaldehyde). The organs (brain and liver) were surgically harvested and stored in 4% formaldehyde at room temperature (RT) until transfer to paraffin. Paraffin-embedded tissue sections (3-4 μm) were dewaxed in xylene and alcohol. For Ly-6G and calbindin staining, antigen retrieval was done by pre-incubating deparaffinized samples with 0.05% proteinase K (Dako, Germany) in 50 mM Tris-HCl (pH 7.5) for 8 min at RT. CTSS and lysozyme were retrieved by boiling the sections in acidic condition for 30 min. Sections were incubated with anti-Ly-6G (20 μg/ml), anti-calbindin (1:1000), anti-CTSS (20 μg/ml) or anti-lysozyme (1:20) overnight at 4° C. Reagents were prepared according to the manufacturer's instructions (Vector laboratories). The staining protocol was followed as described previously (19). The secondary antibody for neutrophil staining was biotinylated rabbit anti-rat IgG (mouse absorbed, Vector Laboratories) and for Purkinje neurons was biotinylated horse anti-mouse IgG (Vector Laboratories).
# For fluorescence microscopy, FITC-conjugated IgG (MP Biomedicals, Solon, Ohio, USA) was the secondary antibody. Sections stained only with secondary antibodies served as controls. Brightfield images were acquired on a Nikon Olympus microscope, using a Nikon digital DS-Fi1-U2 camera controlled by NIS-Elements F3.0 Nikon software (all from Nikon Instruments INC, Tokyo, Japan). Images were visualized with A10 PL 10×/0.25, or a DPIan Apo 40×/1.00 oil-immersion or a DPIan Apo 100×/1.30 oil-immersion objective lens (Nikon). Fluorescence microscopy and digital image collection were performed using an Olympus IX inverted fluorescence microscope and a Photometrix cooled CCD camera (CH350/LCCD) driven by DeltaVision software from Applied Precision (Seattle, Wash., USA). […] ImageJ (National Institute of Health, Bethesda, Md., USA) software was used to process and quantify the fluorescence intensity of CTSS and lysozyme. […]
# [2] = tested on: Npc1^nih Npc1^−/− mice; experiment: Plasma 24(S)-hydroxy cholesterol ELISA after HPβCD; type: in vivo, mouse
# Method: Plasma 24-HC concentration was determined using ELISA kit from Enzo Life Sciences (Farmingdale, N.Y., USA) according to the manufacturer's instructions. Plasma was diluted to 1:1000 in supplied buffer and measurements were done in triplicate wells. Pure 24-HC (supplied with kit) was used to prepare the standard curve. 24-HC concentration was normalized to plasma protein content. Starting at P21 and once a week thereafter, Npc1^nih and Npc1^nmf164 mice were injected i.p with 20% 2-hydroxypropyl-beta-cyclodextrin (HPβCD, 4000 mg/Kg) prepared in 0.2% DMSO and 0.9% saline. Control mice received 0.2% DMSO in 0.9% saline. Blood was collected either via cheek bleed or terminal heart bleed from mice in EDTA tubes (BD Biosciences, San Jose, Calif., USA). Plasma was separated by centrifugation at 2500 rpm for 15 min and stored at −70° C. until used.
# [3] = tested on: Npc1^nih Npc1^−/− mice; experiment: Plasma lysozyme activity in HPβCD-treated Npc1^nih mice; type: in vivo, mouse
# Method: Lysozyme activity in plasma was measured using fluorescence based lysozyme assay kit (EnzCheck, Life Technologies, Carlsbad, Calif., USA) as describer earlier (19). Plasma corresponding to 25 μg protein from female and male Npc1^nih mice was used in a 100 μl reaction volume. The reaction was carried out at 37° C. for 24 h. Fluorescence was read using excitation/emission of 494/518 nm in a multiwell plate reader spectramax M2 (Molecular devices, CA, USA). The values obtained were normalized by dividing the numbers by the mean value of lysozyme obtained among untreated Npc1^+/− mice. Purified chicken egg white lysozyme was used as a positive control. Starting at P21 and once a week thereafter, Npc1^nih and Npc1^nmf164 mice were injected i.p with 20% 2-hydroxypropyl-beta-cyclodextrin (HPβCD, 4000 mg/Kg) prepared in 0.2% DMSO and 0.9% saline. Control mice received 0.2% DMSO in 0.9% saline. Blood was collected either via cheek bleed or terminal heart bleed from mice in EDTA tubes (BD Biosciences, San Jose, Calif., USA). Plasma was separated by centrifugation at 2500 rpm for 15 min and stored at −70° C. until used.
# [4] = tested on: Npc1^pf/pf mice; conditions: weekly injections to Npc1^pf/pf mice, previous study; cited from earlier work
# [5] = tested on: Npc1^nih mice; conditions: cited from earlier work
# [6] = Npc1^nih Npc1^−/−, weekly HPβCD, at 80+ days
structure (smiles),measurement,setting,value
"CC(O)COC[C@H]1O[C@@H]2O[C@H]3[C@H](O)[C@@H](O)[C@@H](O[C@H]4[C@H](O)[C@@H](O)[C@@H](O[C@H]5[C@H](O)[C@@H](O)[C@@H](O[C@H]6[C@H](O)[C@@H](O)[C@@H](O[C@H]7[C@H](O)[C@@H](O)[C@@H](O[C@H]8[C@H](O)[C@@H](O)[C@@H](O[C@H]1[C@H](O)[C@H]2O)O[C@@H]8COCC(C)O)O[C@@H]7COCC(C)O)O[C@@H]6COCC(C)O)O[C@@H]5COCC(C)O)O[C@@H]4COCC(C)O)O[C@@H]3COCC(C)O (stereo partly drawn) [HPβCD, 2-hydroxypropyl-beta-cyclodextrin]",lysozyme levels in the cerebellum (white mater region),[1]; FIG. 19E-F,no significant effect
same,reduction of lysozyme in molecular layer of the cerebellum,[1]; FIG. 19I-K,~25%
same,reduction of CTSS levels in hippocampal neurons,[1]; ImageJ quantification,~20%
same,24(S)-HC level in plasma,[2],largely unaffected
same,decrease of plasma lysozyme,"[3]; NPC mice, composite quartile analysis (FIG. 20B)",50%
same,plasma lysozyme activity,"[3]; Npc1^nih Npc1^−/−, weekly 4000 mg/Kg from P21, at 50-60 days",reduced plasma lysozyme activity levels seen in wild type mice
same,plasma lysozyme compared to mock treated animals,[3]; [6],reduction
same,plasma lysozyme increase compared to normal animals,[3]; [6],1.5 fold
same,disease status,[4],improvement in disease status
same,Lgals3 and Ctsd transcripts,"[5]; Npc1^−/− mice, Cluzeau et al., 2012",reduced
same,disease and survival,"[5]; weekly injections to Npc1^nih, previous studies",ameliorates the disease and extend the survival; also recorded: reduce disease and extend the survival
